Our source for the Kd values is patent publication US7348315B2, “Methods of treating heart failure with modified ATP, ADP and AMP compounds” (priority 1995, dated 2008).

The target of this experiment is P2 purinergic receptor. Description: Intact myocyte binding with the P2-selective radioligand [35S]ADPβS. The note with it: intact myocytes; radioligand range 0.5-200 nM; read-out: Kd of low-affinity [35S]ADPβS binding site. The method, then:
Cardiac ventricular myocytes were prepared and incubated with progressively increasing concentrations of [^35S] ADPβS. The binding reaction is performed by the addition of a Dulbecco's Modified Eagle's Medium (which contains 1-glutamine and glucose but lacks phenol red, adenosine nucleotides, and sodium bicarbonate, buffered by HEPES, pH=7.4) containing [^35S]ADPβS (0.5 to 200 nM, for saturation isotherm study). Nonradioactive ADPβS is used to define the level of nonspecific binding. Additional purinergic agonists or antagonists are added depending on the experimental conditions. Following a 30-minute incubation at 37° C., cells are washed three times with 3 ml of ice-cold wash buffer (containing 120 mM NaCl, 5.4 mM KCl, 0.8 mM MgSO4, 1.8 mM CaCl2, 50 mM HEPES, and 1.0 mM NaH2PO4 adjusted to pH=7.4). One ml of 0.5 M NaOH is added to the monolayer culture to solubilize the cell protein and 0.5 ml of Tris buffer, pH=7.4 is added to neutralize NaOH prior to scintillation counting for ^35S.
To determine the Bmax and Kd of the specific [^35S]ADPβS binding, a computer-aided nonlinear regression analysis (LIGAND PROGRAM) is used. See, […] 1980, 107, 220-239. Both a one-site and a two-site model is applied to fit the data points.

As to `Nc1ncnc2c1ncn2[C@@H]1O[C@H](COP(=O)(O)OP(O)(O)=S)[C@@H](O)[C@H]1O` [[^35S] ADPβS, [^35S] 5′-O-2-thiodiphosphate], the Kd came out at 40 nM.

The term Kd denotes the constant that tells how readily two partners part at equilibrium.
